Laboratory results published in EP4635969A1, “NOVEL GLUCOCORTICOID, METHOD FOR PREPARING SAME, AND USE THEREOF” (Tianjin Pharmaceutical Biotechnology Co., Ltd., priority 2022, dated 2024).
Where two headings read alike, the source gives them in different places.

Legend:
[1] = molecular target: T1, glucocorticoid receptor (GR) (Homo sapiens, UniProt P04150); test: Assay for agonist activity on glucocorticoid receptor (luciferase reporter, HEK293 cells transfected with pBIND-GR plasmid); assay type: cell-based
T1 sequence (P04150 521-777): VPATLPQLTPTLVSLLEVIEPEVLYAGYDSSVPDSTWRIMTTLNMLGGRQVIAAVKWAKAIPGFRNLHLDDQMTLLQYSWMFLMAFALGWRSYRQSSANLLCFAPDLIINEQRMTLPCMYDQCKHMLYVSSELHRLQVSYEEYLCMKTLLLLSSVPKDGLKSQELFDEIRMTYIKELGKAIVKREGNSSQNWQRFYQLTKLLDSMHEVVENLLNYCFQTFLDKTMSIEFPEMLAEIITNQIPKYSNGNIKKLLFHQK
Summary of the method: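 Readout is luciferase luminescence, with EC50 derived by nonlinear fitting. Compounds ran at 10 concentrations (4-fold steps, top 10 µM, duplicate wells) on pBIND-GR-transfected HEK293 cells in phenol red-free DMEM plus 5% charcoal-stripped serum; 0.1% DMSO served as blank.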

[2] = test system: inflammatory cytokines (TNF-α); test: Anti-uveitis pharmacodynamic experiment (LPS model): inflammatory cytokines in aqueous humor (ELISA); assay type: in vivo, male SD rats; conditions: values not given
Description: Pharmacological Example 5. Pharmacodynamic Experiment on Anti-Uveitis
Test samples: Compounds 23 and 26 were prepared as 5 mg/5 mL ophthalmic suspensions with reference to the formulation of Fluorometholone Eye Drops, and stored at room temperature protected from light until use.
Positive control drug: Fluorometholone Eye Drops (specification: 5 mL/5 mg; Santen Pharmaceutical (CHINA) Co., Ltd.; Lot No. : J20180068) was used as the positive control drug and stored at room temperature protected from light until use.
Fifty male SD rats underwent a one-week adaptive feeding period. The animals were randomly divided into 5 groups: Group 1 served as the blank control group, and Groups 2 to 5 were the model group, fluorometholone group, compound 23 group, and compound 26 group, respectively. Groups 2 to 5 were used to establish rat uveitis models by single subcutaneous injection of 1 mg/kg LPS (Salmonella; Sigma; Lot No. 0000164114) into the plantar tissue of the hindpaw. Salmonella endotoxin was dissolved in normal saline to prepare an injection solution at a concentration of 2 mg/mL, which was injected subcutaneously at 1 mg/kg into the plantar tissue of one paw of the rats. Group 1 was injected with an equal volume of normal saline.
After modeling, 40 µL of normal saline was administered to the eyes (bilateral) of the rats in the blank control group and model group, and 40 µL of the corresponding drugs were administered to the eyes (bilateral) of the […] in the compound 23 group, compound 26 group, and positive drug fluorometholone group, 3 times a day for 2 days. Table 8. Animal grouping and drug administration dosages
Thirty hours after modeling, aqueous humor was collected from both eyes of rats, and partial eyeball tissues of rats were collected. The level of the inflammatory cytokines (TNF-α) was detected using a rat ELISA assay kit.
Statistical analysis was performed using SPSS software. Measurement data were expressed as mean ± standard deviation. One-way ANOVA was used for intergroup comparisons. For data with homogeneous variance, LSD test was used; for data with heterogeneous variance, Dunnett-t test was used. A value of P < 0.05 was considered statistically significant.

[3] = GR agonist EC50 (nM), HEK293 cells transfected with pBIND-GR, luciferase signal
[4] = Nuclear receptor enzyme activity (nM) GR, EC50 of agonist activity, HEK293 reporter cells

Compound: C[C@]12C=CC(=O)C=C1[C@@H](F)C[C@H]1[C@@H]3C[C@H]4OC(c5ccc(CSC6CCOC6=O)cc5)O[C@@]4(C(=O)SCC#N)[C@@]3(C)C[C@H](O)[C@@]12F (stereo partly drawn) [Compound 35, S-(Cyanomethyl) (2S,6aS,6bR,7S,8aS,8bS,11aR,12aS,12bS)-2,6b-difluoro-7-hydroxy-6a,8a-dimethyl-4-oxo-10-(4-( ((2-oxotetrahydrofuran-3-yl)thio)methyl)phenyl)-1,2,4,6a,6b,7,8,8a,11a,12,12a,12b-dodecahydro-8bH-naphtho[2',1':4,5]indeno[1,2-d][1,3]dioxole-8b-carbothioate]
- EC50 [1, 3]: 0.21 nM
- EC50 [1, 4]: 0.21 nM
- inflammatory cytokines in aqueous humor [2]: suppressed inflammatory cytokines in aqueous humor

Compound: C[C@]12C=CC(=O)C=C1CC[C@H]1[C@@H]3C[C@H]4OC(c5ccc(CSC6COC(=O)C6)cc5)O[C@@]4(C(=O)CO)[C@@]3(C)C[C@H](O)[C@@]12Cl (stereo partly drawn) [Compound 26, (6aS,6bR,7S,8aS,8bS,11aR,12aS,12bS)-6b-Chloro-7-hydroxy-8b-(2-hydroxyacetyl)-6a,8a-dimethyl-10-(4-(((5-oxotetrahydrofuran-3-yl)thio)methyl)phenyl)-1,2,6a,6b,7,8,8a,8b,11a,12,12a,12b-do decahydro-4H-naphtho[2',1':4,5]indeno[1,2-d][1,3]dioxol-4-one]
- EC50 [1, 3]: 0.37 nM
- inflammatory cytokines in aqueous humor [2]: suppressed inflammatory cytokines in aqueous humor

Compound: C[C@]12C=CC(=O)C=C1CC[C@H]1[C@@H]3C[C@H]4OC(c5ccc(CSC6CCOC6=O)cc5)O[C@@]4(C(=O)CO)[C@@]3(C)C[C@H](O)[C@@]12Cl (stereo partly drawn) [Compound 23, (6aS,6bR,7S,8aS,8bS,11aR,12aS,12bS)-6b-Chloro-7-hydroxy-8b-(2-hydroxyacetyl)-6a,8a-dimethyl-10-(4-(((2-oxotetrahydrofuran-3-yl)thio)methyl)phenyl)-1,2,6a,6b,7,8,8a,8b,11a,12,12a,12b-do decahydro-4H-naphtho[2',1':4,5]indeno[1,2-d][1,3]dioxol-4-one]
- EC50 ([1]; EC50 of agonist activity, HEK293 reporter cells, read-out: Nuclear receptor enzyme activity (nM) GR): 0.21 nM
- EC50 ([1]; HEK293 cells transfected with pBIND-GR, luciferase signal, read-out: GR agonist EC50): 0.21 nM
- inflammatory cytokines in aqueous humor [2]: suppressed inflammatory cytokines in aqueous humor

Compound: C[C@]12C=CC(=O)C=C1CC[C@H]1[C@@H]3C[C@H]4OC(c5ccc(COC6CCOC6=O)cc5)O[C@@]4(C(=O)CO)[C@@]3(C)C[C@H](O)[C@@]12Cl (stereo partly drawn) [Compound 22, (6aS,6bR,7S,8aS,8bS,11aR,12aS,12bS)-6b-Chloro-7-hydroxy-8b-(2-hydroxyacetyl)-6a,8a-dimethyl-10-(4-(((2-oxotetrahydrofuran-3-yl)oxy)methyl)phenyl)-1,2,6a,6b,7,8,8a,8b,11a,12,12a,12b-do decahydro-4H-naphtho[2',1':4,5]indeno[1,2-d][1,3]dioxol-4-one]
- EC50 [1, 3]: 0.55 nM
- EC50 [1, 4]: 0.55 nM
- inflammatory cytokines in aqueous humor [2]: suppressed inflammatory cytokines in aqueous humor
